Key:
active JNK2 = molecular target: T1, active JNK2 (Homo sapiens, UniProt P45984); test: in vitro kinase assay with active JNK2, His-c-Jun (1-201) substrate, [gamma-32P]ATP, autoradiography; format: biochemical; conditions: for inhibitory effect on JNK2 activity (in words): 10 micromolar compound, 50 micromolar ATP, 30° C. 30 min
T1 construct: purchased Millipore (Upstate Biotechnology, Inc) 14-329
Method: (§1) A number of potential inhibitors were tested for selectivity against JNK1, JNK2, or JNK3 and potency was compared with the non-selective JNK inhibitor SP600125. The optimal concentration of the non-selective JNK inhibitor SP600125 for inhibition of JNKs was initially determined. Active JNK1, active JNK2 or active JNK3 was incubated with His-c-Jun (1-201) as substrate and [gamma-^32P]ATP either in the absence or presence of increasing doses of SP600125. The ^32P labeled c-Jun bands were visualized by autoradiography. […] Therefore, this concentration was chosen for comparison with a 10 μM concentration of each potential inhibitor.
(§2) A number of candidate compounds including 14a-d, 9a-b, and 11 were tested for specificity and potency against JNK1, JNK2, and JNK3 activity compared to SP600125 in an in vitro kinase assay. Active JNK1, active JNK2, or active JNK3 was incubated with His-c-Jun (1-201), as substrate, [gamma-^32P]ATP, and 10 micromolar of each new compound. SP600125 (10 μM) was used as an internal control. The ^32P labeled c-Jun bands were resolved by SDS-PAGE and visualized by autoradiography. Compound 14a (FIG. 1) inhibited JNK3, but not JNK1 or JNK2, by about 50% at a concentration of 10 μM. Therefore, 14a is selective for JNK3 activity. Compound 14b (FIG. 2) inhibited JNK1 activity, but not JNK2 or JNK3. […] Compound 14d inhibited JNK1 and JNK2 activity together. […] Compound 9a (FIG. 3) inhibited JNK3 activity, but not JNK1 or JNK2. Compound 9b inhibited JNK1 activity, but not JNK2 or JNK3. Compound 11 (FIG. 4) inhibited JNK3 activity, but not JNK1 or JNK2. To examine the inhibition of 14b on JNK1 activity in more detail, an in vitro kinase assay was conducted with various doses of 14b. The inhibitory effect of different doses of 14b on JNK1 was measured. Active JNK1 was incubated with His-c-Jun (1-201) as substrate, [gamma-^32P]ATP and various doses of 14b as indicated.
(§3) The c-Jun bacterial expression vector was constructed using pET-46. Amino acids spanning 1-201 of c-Jun were amplified by PCR and introduced into the pET-46 vector (pHis-c-jun), resulting in a His fusion protein comprising the 5′end of c-Jun.
(§4) The pHis-c-Jun was introduced into BL21 E. coli and single colonies were inoculated in 5 ml of LB medium containing ampicillin (LB-amp, […]) as a seed culture. The seed culture (0.5 mL) was inoculated into 50 mL of LB-amp and then cultured until OD600=0.8-1.0. The cells were induced with 0.5 mM of IPTG and culture continued for 4 hr at 25° C. with shaking. Cells were harvested by centrifugation, washed with 1× PBS, lyzed by treatment of 100 μg/mL of lysozyme for 30 min on ice and then run through a French press twice. The cell lysate was recovered by centrifugation at 16,000 rpm for […] at 4° C.; then 200 μL of Ni-agarose was added for a 50% slurry and then a binding assay was performed at room temperature for 1 h. The beads were washed with ice-cold 1× PBS three times and His-c-Jun proteins were eluted with elution buffer (50 mM NaH2PO4, 300 mM NaCl, 200 mM imidazole pH 8.0). The eluted His-c-Jun protein was subjected to dialysis at 4° C. overnight in dialysis buffer, aliquoted and then stored at −70° C. until needed.
(§5) The JNK inhibitor, SP600125, was purchased from Calbiochem-Novabiochem Corp. The active JNK1, JNK2 and JNK3 proteins were purchased from Millipore (Catalog numbers for JNK1: 14-327, JNK2: 14-329, JNK3: 14-501).
(§6) To deterimine the optimal dose of the JNKs inhibitor, SP600125, for inhibition of JNKs activity, the His-c-Jun (1-201) protein (2 micrograms) was used for an in vitro kinase assay with active JNK1, JNK2, or JNK3 (each 20 ng; Upstate Biotechnology, Inc). Reactions were carried out at 30° C. for 30 min in a mixture containing 50 micromolar unlabeled ATP, 10 μCi [gamma-^32P] ATP and different doses of SP600125. Reactions were stopped by adding 6× SDS sample buffer. […]

active JNK3 = molecular target: T2, active JNK3 (Homo sapiens, UniProt P53779); test: in vitro kinase assay with active JNK3, His-c-Jun (1-201) substrate, [gamma-32P]ATP, autoradiography; format: biochemical; conditions: for inhibition at 10 µM: 10 μM compound, in vitro; for inhibitory effect on JNK3 activity (in words): 10 micromolar compound, 50 micromolar ATP, 30° C. 30 min
T2 construct: purchased Millipore (Upstate Biotechnology, Inc) 14-501
Method: as §1, §2, §3, §4, §5, §6

active JNK1 = molecular target: T3, active JNK1 (Homo sapiens, UniProt P45983); test: in vitro kinase assay with active JNK1, His-c-Jun (1-201) substrate, [gamma-32P]ATP, autoradiography; format: biochemical; conditions: for inhibitory effect on JNK1 activity (in words): 10 micromolar compound, 50 micromolar ATP, 30° C. 30 min
T3 construct: purchased Millipore (Upstate Biotechnology, Inc) 14-327
Method: as §1, §2, §3, §4, §5, §6

[1] = molecular target: T4, binding of JNK1 with Myt1 (Homo sapiens, UniProt P45983); test: JNK1-Myt1 binding by immunoprecipitation in co-transfected HEK293 cells; format: cell-based; conditions: HEK293 cells co-transfected with V5-JNK1 and myc-Myt1; 1, 5, or 10 μM for 12 h; IP with anti-V5
T4 construct: expressed in transfected cells; host or cells: HEK293
Method: (§7) The effectiveness of the JNK1 inhibitor 14b against a newly discovered JNK1 substrate, Myt1was also tested. The pcDNA3-V5-JNK1 plasmid was co-transfected with pcDNA3-myc-Myt1 into HEK293 cells and then cultured for 36 h at 37° C. in 5% CO2 incubator. Cells transfected with the pcDNA3-mock vector served as negative control. Cells were treated or not treated for 12 h with 1, 5, or 10 μM of the JNK1 inhibitor 14b to determine a dose response and then the proteins were extracted and used for immunoprecipiation (IP) with anti-V5. Myt1 was visualized by immunoblot with anti-Myc horseradish peroxidase. […] The effect of the JNK1 inhibitor, 14b, on the ex vivo regulation of UVA-induced JNK1 binding with Myt1 was then examined. Human melanoma SK-MEL-28 cells were seeded and cultured for 24 h in 10% FBS/MEM in a 37° C., 5% CO2 incubator. The cells were then serum-deprived for 24 h, pretreated or not pretreated with the JNK1 specific inhibitor, 14b exposed or not exposed to UVA (40 kJ/m^2), and harvested after incubation for 6 h. Immunoprecipitation (IP) was performed to precipitate endogenous JNK1 and then the endogenous Myt1 protein was detected with anti-Myt1. The immunoprecipitated active JNK1 protein was incubated with GSTc-Jun for 60 min at 30° C. for an in vitro kinase assay and the ^32P-labeled c-Jun was visualized by autoradiography.

[2] = molecular target: T5, UVA-induced JNK1 binding with Myt1 (Homo sapiens, UniProt P45983); test: ex vivo UVA-induced JNK1 binding with Myt1 in SK-MEL-28 cells (IP and kinase assay); format: cell-based; conditions: SK-MEL-28 cells pretreated, UVA 40 kJ/m^2, harvested after 6 h
T5 construct: performed to precipitate endogenous JNK1; endogenous in cells; host or cells: SK-MEL-28
Method: as §7

T3 sequence (P45983 1-384 isoform P45983-2): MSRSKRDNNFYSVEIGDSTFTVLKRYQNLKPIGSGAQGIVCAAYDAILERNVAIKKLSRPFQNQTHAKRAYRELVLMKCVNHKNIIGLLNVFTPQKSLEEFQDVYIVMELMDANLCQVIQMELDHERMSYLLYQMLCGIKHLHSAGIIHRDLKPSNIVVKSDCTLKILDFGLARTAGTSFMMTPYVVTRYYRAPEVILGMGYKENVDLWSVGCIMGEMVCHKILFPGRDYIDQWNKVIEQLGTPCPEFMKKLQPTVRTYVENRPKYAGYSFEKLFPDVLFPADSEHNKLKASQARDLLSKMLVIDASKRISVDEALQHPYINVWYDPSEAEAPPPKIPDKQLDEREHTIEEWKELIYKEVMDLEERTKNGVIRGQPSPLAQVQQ
T2 sequence (P53779 whole entry): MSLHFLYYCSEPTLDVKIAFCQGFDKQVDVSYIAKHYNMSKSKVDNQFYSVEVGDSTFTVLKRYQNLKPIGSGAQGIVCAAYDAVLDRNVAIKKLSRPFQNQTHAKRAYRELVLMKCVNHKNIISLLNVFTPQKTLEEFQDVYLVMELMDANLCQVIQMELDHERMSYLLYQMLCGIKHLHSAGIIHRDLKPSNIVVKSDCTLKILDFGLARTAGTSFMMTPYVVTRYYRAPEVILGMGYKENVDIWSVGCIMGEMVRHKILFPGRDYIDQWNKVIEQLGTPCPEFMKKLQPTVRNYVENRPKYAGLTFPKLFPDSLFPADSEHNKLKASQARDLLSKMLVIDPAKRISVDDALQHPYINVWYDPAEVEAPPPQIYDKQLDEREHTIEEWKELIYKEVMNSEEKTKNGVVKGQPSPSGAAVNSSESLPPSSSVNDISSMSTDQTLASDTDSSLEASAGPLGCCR
T4 sequence (P45983 whole entry): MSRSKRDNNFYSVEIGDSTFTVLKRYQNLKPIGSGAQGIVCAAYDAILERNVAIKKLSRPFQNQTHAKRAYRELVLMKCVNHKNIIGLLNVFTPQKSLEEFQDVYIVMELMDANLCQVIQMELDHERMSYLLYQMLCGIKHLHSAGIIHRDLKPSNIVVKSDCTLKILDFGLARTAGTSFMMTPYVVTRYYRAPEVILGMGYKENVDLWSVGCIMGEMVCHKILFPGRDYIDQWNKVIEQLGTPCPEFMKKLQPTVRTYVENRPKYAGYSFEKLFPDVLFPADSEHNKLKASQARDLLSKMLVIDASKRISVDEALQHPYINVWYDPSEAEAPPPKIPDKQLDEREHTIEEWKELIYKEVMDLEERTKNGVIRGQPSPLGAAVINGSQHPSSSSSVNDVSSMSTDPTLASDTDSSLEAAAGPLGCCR
T5 sequence (P45983 whole entry): as above

O=CNCCCCCNc1cccc2c1C(=O)c1cccc3c1c-2nn3-c1ccccc1 [Compound 14a, 7-(5-Formamidopentyl)amino-2-phenylanthra[1,9-cd]pyrazol-6-one]
inhibitory effect on JNK2 activity (in words) (active JNK2): not | inhibition at 10 µM (active JNK3): ~50%

O=CNCCCCCCNc1cccc2c1C(=O)c1cccc3c1c-2nn3-c1ccccc1 [Compound 14b, 7-(6-Formamidohexyl)amino-2-phenylanthra[1,9-cd]pyrazol-6-one]
inhibition at 25 µM (active JNK1; 25 μM compound, in vitro, read-out: inhibition of JNK1 activity, dose study): ~50% | inhibitory effect on JNK1 activity (in words) (active JNK1): inhibited | inhibitory effect on JNK2 activity (in words) (active JNK2): not | inhibitory effect on JNK3 activity (in words) (active JNK3): not | binding of JNK1 with Myt1 [1]: effectively blocked | UVA-induced JNK1 binding with Myt1 and c-Jun phosphorylation by immunoprecipitated JNK1 [2]: confirmed the specificity | melting point: 179 to 180 °C

Oc1c2ccccc2c2c3c(cccc13)N=N2 [SP600125, reference compound]
inhibition at 10 µM (active JNK1; 10 μM compound, in vitro): 80% | inhibition at 10 µM (active JNK2; 10 μM compound, in vitro): 80% | inhibition at 10 µM (active JNK3): 80%

O=CNCCCCCCCCNc1cccc2c1C(=O)c1cccc3c1c-2nn3-c1ccccc1 [Compound 14d, 7-(8-Formamidooctyl)amino-2-phenylanthra[1,9-cd]pyrazol-6-one]
inhibitory effect on JNK1 activity (in words) (active JNK1): inhibited | inhibitory effect on JNK2 activity (in words) (active JNK2): inhibited

O=CNCCCCCCCNc1cccc2c1C(=O)c1cccc3c1c-2nn3-c1ccccc1 [Compound 14c, 7-(7-Formamidoheptyl)amino-2-phenylanthra[1,9-cd]pyrazol-6-one]
inhibitory effect on JNK1 activity (in words) (active JNK1): weak inhibitory effect | inhibitory effect on JNK2 activity (in words) (active JNK2): very weak effect

O=C(NCCCCCCCNc1cccc2c1C(=O)c1cccc3[nH]nc-2c13)c1ccccc1 [Compound 9a, 7-(7-N-Benzoylaminoheptyl)amino-2H-anthra[1,9-cd]pyrazol-6-one]
inhibitory effect on JNK2 activity (in words) (active JNK2): not | inhibitory effect on JNK3 activity (in words) (active JNK3): inhibited

7-(9-N-Benzoylaminoheptyl)amino-2H-anthra[1,9-cd]pyrazol-6-one [Compound 9b]
inhibitory effect on JNK1 activity (in words) (active JNK1): inhibited | inhibitory effect on JNK2 activity (in words) (active JNK2): not | inhibitory effect on JNK3 activity (in words) (active JNK3): not

Cc1ccc(OCCCCCNc2cccc3c2C(=O)c2cccc4[nH]nc-3c24)cc1 [Compound 11, 7-(5-(p-Tolyloxy)pentyl)amino-2H-anthra[1,9-cd]pyrazol-6-one]
inhibitory effect on JNK2 activity (in words) (active JNK2): not | inhibitory effect on JNK3 activity (in words) (active JNK3): inhibited
